These molecules were tested on HIV (assay: Assay for inhibition of HIV replication (spread assay): acute HIV infection of T-lymphoid cells). Conditions: Human immunodeficiency virus 1, 'less than about'.
Type: cell-based
Description: Assays for the inhibition of acute HIV infection of T-lymphoid cells were conducted in accordance with Vacca, J. P. et al., Proc. Natl. Acad. Set USA 1994, 91: 4096. […] For example, the compounds of Examples 1 to 64 were tested in this assay and found to have IC95 values of less than about 10 micromolar.

| Structure (SMILES) | IC95 |
| --- | --- |
| O=C(O)CN1CCCCn2c(c3c(c(O)c2=O)C(=O)N(Cc2ccc(F)c(Cl)c2)CC3)C1=O [Example 12, [11-(3-Chloro-4-fluorobenzyl)-9-hydroxy-1,8,10-trioxo-1,3,4,5,6,8,10,11,12,13-deca-hydro-2H-[1,4]diazocino[2,1-a]-2,6-naphthyridin-2-yl]acetic acid] | < 10 µM |
| CN1CC(N2CCCC2)CCn2c(c3c(c(O)c2=O)C(=O)N(Cc2ccc(F)c(Cl)c2)CC3)C1=O (stereo not shown) [Example 26, 11-(3-Chloro-4-fluorobenzyl)-9-hydroxy-2-methyl-4-pyrrolidin-1-yl-3,4,5,6,12,13-hexahydro-2H[1,4]diazocmo[2,1-a]-2,6-naphthyridine-1,8,10(11H)-trione] | < 10 µM |
| CNC(=O)CN1C(=O)C(C)(C)n2c1c1c(c(O)c2=O)C(=O)N(Cc2ccc(F)c(Cl)c2)CC1 [Example 52, 2-[8-(3-Chloro-4-fluorobenzyl)-6-hydroxy-3,3-dimethyl-2,5,7-trioxo-2,3,7,8,9,10-hexahydroimidazo[2,1-a]-2,6-naphthyridin-1(5H)-yl]-N-methylacetamide] | < 10 µM |
| CN1CC(C)(C)CCn2c(c3c(c(O)c2=O)C(=O)N(Cc2ccc(F)c(Cl)c2)CC3)C1=O [Example 45, 11-(3-Chloro-4-fluorobenzyl)-9-hydroxy-2,4,4-trimethyl-3,4,5,6,12,13-hexahydro-2H[1,4]diazocino[2,1-a]-2,6-naphthyridine-1,8,10(11H)trione] | < 10 µM |
| CN1CC(O)C(C)(C)Cn2c(c3c(c(O)c2=O)C(=O)N(Cc2ccc(F)cc2)CC3)C1=O (racemic) [Example 42, (4R/S)-11-(4-Fluorobenzyl)-4,9-dihydroxy-2,5,5-trimethyl-3,4,5,6,12,13-hexahydro-2H[1,4]diazocino[2,1-a]-2,6-naphthyridine-1,8,10(11H)-trione] | < 10 µM |
| CN1CC(O)C(C)(C)Cn2c(c3c(c(O)c2=O)C(=O)N(Cc2ccc(F)c(Cl)c2)CC3)C1=O (racemic) [Example 38, (4R/S)-11-(3-Chloro-4-fluorobenzyl)-4,9-dihydroxy-2,5,5-trimethyl-3,4,5,6,12,13-hexahydro-2H[1,4]diazocino[2,1-a]-2,6-naphthyridine-1,8,10(11H)-trione] | < 10 µM |
| O=C1OCCCn2c1c1c(c(O)c2=O)C(=O)N(Cc2ccc(F)c(Cl)c2)CC1 [Example 62, 10-(3-Chloro-4-fluorobenzyl)-8-hydroxy-4,5,11,12-tetrahydro-3H-[1,4]oxazepino[3,4-a]-2,6-naphthyridine-1,7,9(10H)-trione] | < 10 µM |
| CN1CCn2c(c3c(c(O)c2=O)C(=O)N(Cc2ccc(F)c(Cl)c2)CC3)C1=O [Example 6, 9-(3-Chloro-4-fluorobenzyl)-7-hydroxy-2-methyl-3,4,10,11-tetrahydro-2H-pyrazino[2,1-a]-2,6-naphthyridine-1,6,8(9H)-trione] | < 10 µM |
| CC(=O)NCCN1CCCCn2c(c3c(c(O)c2=O)C(=O)N(Cc2ccc(F)c(Cl)c2)CC3)C1=O [Example 20, 11-(3-Chloro-4-fluorobenzyl)-9-hydroxy-2-[2-(acetylamino)ethyl]-3,4,5,6,12,13-hexahydro-2H[1,4]diazocino[2,1-a]-2,6-naphthyridine-1,8,10(11H)-trione] | < 10 µM |
| C=C1CCCN(C)C(=O)c2c3c(c(O)c(=O)n21)C(=O)N(Cc1ccc(F)c(Cl)c1)CC3 [Example 50, 11-(3-chloro-4-fluorobenzyl)-9-hydroxy-2-methyl-6-methylene-3,4,5,6,12,13-hexahydro-2H-[1,4]diazocino[2,1-a]2,6-naphthyridine-1,8,10(11H)trione] | < 10 µM |
| CC1(C)C(=O)N(CCCO)c2c3c(c(O)c(=O)n21)C(=O)N(Cc1ccc(F)c(Cl)c1)CC3 [Example 55, 8-(3-Chloro-4-fluorobenzyl)-6-hydroxy-1-(3-hydroxypropyl)-3,3-dimethyl-1,8,9,10-tetrahydroimidazo[2,1-a]-2,6-naphthyridine-2,5,7(3H)-trione] | < 10 µM |
| NCCN1CCCCn2c(c3c(c(O)c2=O)C(=O)N(Cc2ccc(F)c(Cl)c2)CC3)C1=O [Example 19, 11-(3-Chloro-4-fluorobenzyl)-9-hydroxy-2-(2-aminoethyl)-3,4,5,6,12,13-hexahydro-2H[1,4]diazocino[2,1-a]-2,6-naphthyridine-1,8,10(11H)-trione] | < 10 µM |
| CC1(C)C(=O)N(CC(N)=O)c2c3c(c(O)c(=O)n21)C(=O)N(Cc1ccc(F)c(Cl)c1)CC3 [Example 53, 2-[8-(3-Chloro-4-fluorobenzyl)-6-hydroxy-3,3-dimethyl-2,5,7-trioxo-2,3,7,8,9,10-hexahydroimidazo[2,1-a]-2,6-naphthyridin-1(5H)-yl]acetamide] | < 10 µM |
| CC(=O)OCC1Cn2c(c3c(c(O)c2=O)C(=O)N(Cc2ccc(F)c(Cl)c2)CC3)C(=O)O1 (stereo not shown) [Example 63, 9-(3-Chloro-4-fluorobenzyl)-7-hydroxy-3-(acetyloxymethyl)-3,4,10,11-tetrahydro[1,4]oxazino[3,4-a]-2,6-naphthyridine-1,6,8(9H)-trione] | < 10 µM |
| CC(=O)OCCCN1C(=O)C(C)(C)n2c1c1c(c(O)c2=O)C(=O)N(Cc2ccc(F)c(Cl)c2)CC1 [Example 58, 8-(3-Chloro-4-fluorobenzyl)-6-hydroxy-1-(3-acetyloxypropyl)-3,3-dimethyl-1,8,9,10-tetrahydroimidazo[2,1-a]-2,6-naphthyridine-2,5,7(3H)-trione] | < 10 µM |
| CC1CCCN(CCn2cccn2)C(=O)c2c3c(c(O)c(=O)n21)C(=O)N(Cc1ccc(F)c(Cl)c1)CC3 (stereo not shown) [Example 35, 11-(3-Chloro-4-fluorobenzyl)-9-hydroxy-2-[2-(1H-pyrazol-1-yl)ethyl]-6-methyl-3,4,5,6,12,13-hexahydro-2H[1,4]diazocino[2,1-a]-2,6-naphthyridine-1,8,10(11H)-trione] | < 10 µM |
| COCCN1CCCCn2c(c3c(c(O)c2=O)C(=O)N(Cc2ccc(F)c(Cl)c2)CC3)C1=O [Example 22, 11-(3-Chloro-4-fluorobenzyl)-9-hydroxy-2-[2-(methoxy)ethyl]-3,4,5,6,12,13-hexahydro-2H[1,4]diazocino[2,1-a]-2,6-naphthyridine-1,8,10(11H)-trione] | < 10 µM |
| CC1CCCN(CCn2ccnc2)C(=O)c2c3c(c(O)c(=O)n21)C(=O)N(Cc1ccc(F)c(Cl)c1)CC3 (stereo not shown) [Example 36, 11-(3-Chloro-4-fluorobenzyl)-9-hydroxy-2-[2-(1H-imidazol-1-yl)ethyl]-6-methyl-3,4,5,6,12,13-hexahydro-2H[1,4]diazocino[2,1-a]-2,6-naphthyridine-1,8,10(11H)-trione] | < 10 µM |
| O=C1c2c(c3n(c(=O)c2O)CCCCN(CCN2CCCCC2)C3=O)CCN1Cc1ccc(F)c(Cl)c1 [Example 18, 11-(3-Chloro-4-fluorobenzyl)-9-hydroxy-2-(2-piperidinyl-1-ylethyl)-3,4,5,6,12,13-hexahydro-2H[1,4]diazocino[2,1-a]-2,6-naphthyridine-1,8,10(11H)-trione] | < 10 µM |
| CC1(C)C(=O)N(CCCCO)c2c3c(c(O)c(=O)n21)C(=O)N(Cc1ccc(F)c(Cl)c1)CC3 [Example 56, 8-(3-Chloro-4-fluorobenzyl)-6-hydroxy-1-(4-hydroxybutyl)-3,3-dimethyl-1,8,9,10-tetrahydroimidazo[2,1-a]-2,6-naphthyridine-2,5,7(3H)-trione] | < 10 µM |
| CC(=O)OCCN1CCCCn2c(c3c(c(O)c2=O)C(=O)N(Cc2ccc(F)c(Cl)c2)CC3)C1=O [Example 10, 11-(3-Chloro-4-fluorobenzyl)-9-hydroxy-2-[2-(acetyloxy)ethyl]-3,4,5,6,12,13-hexahydro-2H[1,4]diazocino[2,1-a]-2,6-naphthyridine-1,8,10(11H)-trione] | < 10 µM |
| CN1CCCn2c(c3c(c(O)c2=O)C(=O)N(Cc2ccc(F)c(Cl)c2)CC3)C1=O [Example 3, 10-(3-Chloro-4-fluorobenzyl)-8-hydroxy-2-methyl-2,3,4,5,11,12-hexahydro[1,4]diazepino[2,1-a]-2,6-naphthyridine-1,7,9(10H)-trione] | < 10 µM |
| CN1CCCCn2c(c3c(c(O)c2=O)C(=O)N(Cc2ccc(F)cc2)CC3)C1=O [Example 2, 11-(4-Fluorobenzyl)-9-hydroxy-2-methyl-3,4,5,6,12,13-hexahydro-2H[1,4]diazocino[2,1-a]-2,6-naphthyridine-1,8,10(11H)-trione] | < 10 µM |
| CC1CCCN(CCN2CCOCC2)C(=O)c2c3c(c(O)c(=O)n21)C(=O)N(Cc1ccc(F)c(Cl)c1)CC3 (stereo not shown) [Example 32, 11-(3-Chloro-4-fluorobenzyl)-9-hydroxy-2-(2-morpholin-4-ylethyl)-6-methyl-3,4,5,6,12,13-hexahydro-2H[1,4]diazocino[2,1-a]-2,6-naphthyridine-1,8,10(11H)-trione] | < 10 µM |
| CN1CCC[C@@H](CO)n2c(c3c(c(O)c2=O)C(=O)N(Cc2ccc(F)c(Cl)c2)CC3)C1=O [Example 49, (6S)-11-(3-Chloro-4-fluorobenzyl)-9-hydroxy-6-(hydroxymethyl)-2-methyl-3,4,5,6,12,13-hexahydro-2H-[1,4]diazocino[2,1-a]-2,6-naphthyridine-1,8,10(11H)-trione] | < 10 µM |
| CC(=O)OCCN1C(=O)C(C)(C)n2c1c1c(c(O)c2=O)C(=O)N(Cc2ccc(F)c(Cl)c2)CC1 [Example 57, 8(3-Chloro-4-fluorobenzyl)-6-hydroxy-1-(2-acetyloxyethyl)-3,3-dimethyl-1,8,9,10-tetrahydroimidazo[2,1-a]-2,6-naphthyridine-2,5,7(3H)-trione] | < 10 µM |
| CC1CCCN(CCN2CCCC2)C(=O)c2c3c(c(O)c(=O)n21)C(=O)N(Cc1ccc(F)c(Cl)c1)CC3 (stereo not shown) [Example 34, 11-(3-Chloro-4-fluorobenzyl)-9-hydroxy-2-(2-pyrrolidinyl-1-ylethyl)-6-methyl-3,4,5,6,12,13-hexahydro-2H[1,4]diazocino[2,1-a]-2,6-naphthyridine-1,8,10(11H)-trione] | < 10 µM |
| CN(C)C(=O)CN1CCCCn2c(c3c(c(O)c2=O)C(=O)N(Cc2ccc(F)c(Cl)c2)CC3)C1=O [Example 13, 2-[11-(3-Chloro-4-fluorobenzyl)-9-hydroxy-1,8,10-trioxo-1,3,4,5,6,8,10,11,12,13-deca-hydro-2H-[1,4]diazocino[2,1-a]-2,6-naphthyridin-2-yl]-N,N-dimethylacetamide] | < 10 µM |
